Where two headings read alike, the source gives them in different places.
How the values were obtained:
[1] = phase I studies / clinical development, background; cited from earlier work
[2] = Single-dose muscle myopathy study, 14-day observation; type: in vivo; settings: for Myopathy / Survival: rats, 14 days
Source text: Rats that loss greater than 20% of its body weight were dropped from the study. […]

[3] = in vivo; settings: rat, plasma, 20 mg/kg
[4] = system: HT-29 human colorectal adenocarcinoma cells; test: In vitro IC50 cytotoxicity, Alamar Blue cell viability; type: cell-based
Protocol: HT-29 human colorectal adenocarcinoma cells (#HTB-38, ATCC, Manassas, Va.) were plated in 96-well tissue culture plates (Costar #3595) at 5×10^3 cells/well in a final volume of 0.1 mL of 10% fetal bovine serum in McCoy's 5A (#10-050-CV, Mediatech, Manassas, Va.). Defined fetal bovine serum was obtained from HyClone (#SH30070.03, lot #AWB96395, Logan, Utah). Plates containing cells were incubated at 37° C. in 5% CO2 in humidified air for 24 hr. The selected initial cell plating density was chosen based upon the approximate doubling time of the human tumor cell line.
Test compounds were diluted from stock solutions to 2.2 mmol/L in Dulbecco's modified phosphate-buffered saline (DPBS; Mediatech, Inc., lot #21031339, Manassas, Va.), then serially diluted three-fold in DPBS to generate a nine point dose-response curve. Ten microliters of diluted test compounds were added to wells in triplicate to achieve the desired final concentration of test compounds. Plates containing cells with and without added test compounds were returned to incubation as described above.
For the two hour cytotoxicity assessment, medium was removed after two hours of drug exposure and replaced with 0.1 mL/well culture medium, and cells were incubated for an additional 70 hours as above.
For the twenty-four hour cytotoxicity assessment, medium was removed after one day of drug exposure and replaced with 0.1 mL/well culture medium, and cells were returned to incubation for an additional 48 hours. Subsequently, cell viability was assessed using Alamar Blue. For this purpose, media was removed by pipetting from cultured cells and replaced with 0.1 mL/well of 10% (v/v) Alamar Blue (#BUFO12A, AbD Serotec, Raleigh, N.C.) diluted in the appropriate cell culture media. Plates were then returned to incubation as before for appropriate color development, between two to four hours.
Fluorescence of individual plate wells was measured at 545 nm/590 nm (excitation/emission) using a BioTek Synergy4 microplate reader. Cell viability was calculated as a percentage of measured fluorescence obtained relative to cells treated with culture media alone. IC50 values (μmol/L) were determined with the mean of triplicate values using nonlinear regression analysis and a four-parameter logistic model.

[5] = MTD of liposomal and free naphthalimides and azonifides; type: in vivo
[6] = Table 7, read-out: 2 hr Tx (IC50)
[7] = Table 7, read-out: 24 hr Tx (IC50)
[8] = Table 7, read-out: 72 hr Tx (IC50)
[9] = Homo sapiens, 2 h, Table 7, read-out: 2 hr Tx (IC50)
[10] = Homo sapiens, 24 h, Table 7, read-out: 24 hr Tx (IC50)
[11] = Homo sapiens, 48 h, Table 7, read-out: 48 hr Tx (IC50)
[12] = mouse, in vivo, male athymic nude mice, read-out: MTD

Compound: O=C1c2cccc3cccc(c23)C(=O)N1CCNCCCNCCN1C(=O)c2cccc3cccc(c23)C1=O [Free Elinafide, Elinafide]
- dose-limiting toxicity in clinical study [1]: cumulative dose-limiting neuro-muscular toxicity and myelosuppression
- muscle myopathy in treated rats ([2]; administration at MTD, single dose): significant muscle myopathy
- Myopathy ([2]; 25 mg/kg, F): 1/3
- Survival ([2]; 25 mg/kg, F): 3/3
- Myopathy ([2]; 25 mg/kg, M): 2/3
- Survival ([2]; 25 mg/kg, M): 3/3
- Myopathy ([2]; 35 mg/kg, F): 3/3
- Survival ([2]; 35 mg/kg, F): 3/3
- Survival ([2]; 35 mg/kg, M): 0/3
- AUC [3]: 4.7 ng·h/mL
- Cmax [3]: 1.4 ng/mL
- Vd [3]: 204000
- half-life [3]: 53.5 h

Compound: CN(C)CCN1C(=O)c2cccc3cc([N+](=O)[O-])cc(c23)C1=O [mitonafide]
- dose-limiting toxicity in clinical study [1]: dose limiting toxicity

Compound: C[C@H](CNCCNC[C@@H](C)N1C(=O)c2cccc3cc([N+](=O)[O-])cc(c23)C1=O)N1C(=O)c2cccc3cc([N+](=O)[O-])cc(c23)C1=O [DMP-840]
- dose-limiting toxicity in clinical study [1]: dose limiting toxicity

Compound: Ethonafide [Ethonafide Free]
- IC50 [4, 6]: 751 nM
- IC50 [4, 7]: 189 nM
- IC50 [4, 8]: 388 nM
- MTD ([5]; mouse, in vivo): 15 mg/kg

Compound: CN(C)CCN1C(=O)c2cccc3cc4ccccc4c(c23)C1=O [Azonifide Free, Azonifide]
- IC50 [4, 9]: 1170 nM
- IC50 [4, 10]: 256 nM
- IC50 [4, 11]: 283 nM
- IC50 ([4]; Homo sapiens, 72 h, Table 7, read-out: 72 hr Tx (IC50)): 386 nM
- MTD [5, 12]: 10 mg/kg

Compound: CN(C)CCN1C(=O)c2cccc3cc(N)cc(c23)C1=O [Amonafide Free, Amonafide]
- IC50 [4, 9]: 90300 nM
- IC50 [4, 10]: 34200 nM
- IC50 [4, 11]: 15700 nM
- MTD [5, 12]: 45 mg/kg
- dose-limiting toxicity in clinical study [1]: high variability and dose-limiting toxicity

Compound: CN(C)CCN1C(=O)c2cccc3cc(NC(N)=O)cc(c23)C1=O [UNBS-5162 Free, UNBS-5162]
- IC50 [4, 6]: > 100000 nM
- IC50 [4, 7]: 24800 nM
- IC50 [4, 8]: 31300 nM
- MTD ([5]; male athymic nude mice): 45 mg/kg
- dose-limiting toxicity in clinical study [1]: dose limiting toxicity

— patent US20210290537A1, “LIPOSOMAL ELINAFIDE FORMULATIONS AND USES THEREOF” (MALLINCKRODT LLC, priority 2016, published 2021)
